# ChEMBL document CHEMBL2151032, “Structural and enzymatic analyses reveal the binding mode of a novel series of Francisella tularensis enoyl reductase (FabI) inhibitors” (J Med Chem, 2012)
# Biological target: T1, Enoyl-[acyl-carrier-protein] reductase [NADH] (Francisella tularensis subsp. tularensis (strain SCHU S4 / Schu 4), UniProt Q5NGQ3)
# T1 sequence (Q5NGQ3 whole entry): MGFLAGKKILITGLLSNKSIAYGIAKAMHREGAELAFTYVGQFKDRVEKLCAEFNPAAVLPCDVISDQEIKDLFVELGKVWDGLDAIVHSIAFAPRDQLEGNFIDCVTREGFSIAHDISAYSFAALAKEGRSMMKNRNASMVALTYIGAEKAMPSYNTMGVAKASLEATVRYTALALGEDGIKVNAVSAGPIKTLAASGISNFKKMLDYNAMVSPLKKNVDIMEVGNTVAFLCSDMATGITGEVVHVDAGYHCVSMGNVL
smiles,measurement,value
Cc1cc2ncn(Cc3ccc(Cl)c(Cl)c3)c2cc1C,Ki,360 nM
